Experimental data published in patent US10668067B2, “Pyridine sulfonamides” (AMGEN INC., priority 2016, dated 2020).

The compounds below were run against human Nav1.7 (Homo sapiens (Human), UniProt Q15858) (assay: Nav 1.7 In Vitro PX Assay (PatchXpress whole cell voltage clamp)). Details: in-vitro Nav 1.7 PX data.
Type: cell-based
In short: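 HEK293 cells stably expressing human Nav1.7, automated whole-cell clamp at a holding potential giving 20–50% inactivation; 20 ms steps to −10 mV at 0.1 Hz. One concentration per cell for 3 min; peak current inhibition at end of exposure, 3–5 cells per concentration, IC50 fitted from % inhibition.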

Sequence of human Nav1.7 (Q15858 whole entry): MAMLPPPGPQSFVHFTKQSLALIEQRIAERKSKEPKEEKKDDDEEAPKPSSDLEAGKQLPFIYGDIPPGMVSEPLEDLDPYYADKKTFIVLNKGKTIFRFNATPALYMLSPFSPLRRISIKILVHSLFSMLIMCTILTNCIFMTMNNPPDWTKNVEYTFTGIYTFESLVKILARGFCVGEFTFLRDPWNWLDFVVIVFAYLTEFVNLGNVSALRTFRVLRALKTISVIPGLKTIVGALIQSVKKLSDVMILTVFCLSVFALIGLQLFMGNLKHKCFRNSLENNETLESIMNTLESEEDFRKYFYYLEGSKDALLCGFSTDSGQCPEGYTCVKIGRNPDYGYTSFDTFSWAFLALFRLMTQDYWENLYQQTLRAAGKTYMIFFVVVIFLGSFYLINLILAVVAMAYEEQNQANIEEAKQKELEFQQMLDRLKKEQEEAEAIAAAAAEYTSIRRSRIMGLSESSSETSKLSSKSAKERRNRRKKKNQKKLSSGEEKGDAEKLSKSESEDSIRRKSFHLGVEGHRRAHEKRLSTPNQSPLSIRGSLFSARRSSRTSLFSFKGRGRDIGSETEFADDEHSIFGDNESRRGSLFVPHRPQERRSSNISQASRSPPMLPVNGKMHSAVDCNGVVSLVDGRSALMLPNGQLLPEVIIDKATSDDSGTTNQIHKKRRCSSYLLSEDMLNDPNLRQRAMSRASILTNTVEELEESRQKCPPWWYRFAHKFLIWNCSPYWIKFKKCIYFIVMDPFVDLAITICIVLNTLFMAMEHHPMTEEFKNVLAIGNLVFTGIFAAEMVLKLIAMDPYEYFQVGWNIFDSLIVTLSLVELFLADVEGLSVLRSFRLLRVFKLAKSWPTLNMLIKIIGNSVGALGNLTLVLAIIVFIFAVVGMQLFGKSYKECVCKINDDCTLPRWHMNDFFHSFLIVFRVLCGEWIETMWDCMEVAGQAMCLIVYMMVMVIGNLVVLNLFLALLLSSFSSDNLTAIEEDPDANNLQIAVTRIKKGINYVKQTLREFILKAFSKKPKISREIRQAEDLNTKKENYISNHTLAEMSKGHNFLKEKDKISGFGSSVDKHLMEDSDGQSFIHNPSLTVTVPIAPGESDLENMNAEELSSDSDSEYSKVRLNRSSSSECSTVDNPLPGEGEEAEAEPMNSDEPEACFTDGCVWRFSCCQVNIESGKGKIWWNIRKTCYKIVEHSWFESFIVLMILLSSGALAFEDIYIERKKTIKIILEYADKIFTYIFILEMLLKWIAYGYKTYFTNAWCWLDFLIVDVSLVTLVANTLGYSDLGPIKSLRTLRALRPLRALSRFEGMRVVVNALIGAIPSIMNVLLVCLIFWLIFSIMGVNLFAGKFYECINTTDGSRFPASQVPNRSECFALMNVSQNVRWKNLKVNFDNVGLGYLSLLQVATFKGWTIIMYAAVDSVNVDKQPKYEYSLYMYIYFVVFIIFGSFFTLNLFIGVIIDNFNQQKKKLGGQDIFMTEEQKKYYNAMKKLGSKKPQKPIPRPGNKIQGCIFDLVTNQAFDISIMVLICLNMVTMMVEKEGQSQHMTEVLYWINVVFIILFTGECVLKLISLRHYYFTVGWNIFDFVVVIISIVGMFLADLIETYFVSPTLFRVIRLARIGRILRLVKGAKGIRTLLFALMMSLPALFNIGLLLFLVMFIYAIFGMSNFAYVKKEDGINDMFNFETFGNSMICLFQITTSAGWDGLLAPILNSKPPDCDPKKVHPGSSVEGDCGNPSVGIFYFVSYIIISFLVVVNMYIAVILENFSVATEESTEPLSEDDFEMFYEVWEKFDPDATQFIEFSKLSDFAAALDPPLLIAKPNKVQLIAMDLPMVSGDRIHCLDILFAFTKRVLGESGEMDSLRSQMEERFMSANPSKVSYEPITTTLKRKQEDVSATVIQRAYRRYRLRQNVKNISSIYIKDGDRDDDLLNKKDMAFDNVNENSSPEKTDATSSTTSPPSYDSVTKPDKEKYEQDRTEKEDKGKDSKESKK

| IC50 [µM] | Structure (SMILES) |
| --- | --- |
| 0.068 | CNC(=O)N(c1ccc(S(=O)(=O)Nc2ccon2)cn1)c1cc(Cl)c(C#CC2CCCC2)cc1OC [Example 7, 6-((5-chloro-4-(cyclopentylethynyl)-2-methoxyphenyl)(methylcarbamoyl)amino)-N-3-isoxazolyl-3-pyridinesulfonamide] |
| 0.849 | CNC(=O)N(c1ccc(S(=O)(=O)Nc2ccon2)cn1)c1cc(F)c(CCC(F)(F)F)cc1OC [Example 8, 6-((5-fluoro-2-methoxy-4-(3,3,3-trifluoropropyl)phenyl)(methylcarbamoyl)amino)-N-3-isoxazolyl-3-pyridinesulfonamide] |
| 0.4 | CNC(=O)N(c1ccc(S(=O)(=O)Nc2ccon2)cc1)c1ccc(-c2ccc(Cl)c(C)c2)cc1OC [Example 9, 4-(1-(4′-chloro-3-methoxy-3′-methyl-[1,1′-biphenyl]-4-yl)-3methylureido)-N-(isoxazol-3-yl)benzenesulfonamide] |
| 0.21 | CNC(=O)N(c1ccc(S(=O)(=O)Nc2ccon2)cc1)c1cc(F)c(-c2ccc(F)c(OC(F)(F)F)c2)cc1OC [Example 10, 4-(1-(2,4′-difluoro-5-methoxy-3′-(trifluoromethoxy)-[1,1′-biphenyl]-4-yl)-3-methylureido)-N-(isoxazol-3-yl)benzenesulfonamide] |
